From patent US20230190689A1, “METHODS AND COMPOSITIONS FOR INDUCING BROWN ADIPOGENESIS” (ENERGESIS PHARMACEUTICALS, INC., priority 2020, published 2023)

What was measured:
CD34+ cells [1] = assay: Light microscopy of CD34+ cells for brown adipocyte differentiation (multilocular lipid-containing cells); assay type: cell-based, human; details: CD34+ cells 6 days following the end of compound treatment and switch into MDM media
Experimental: (§1) Cells were seeded at 10,000 per cm^2 (48-well tissue culture, Chemglass #CLS-3500-048), cultured until confluency (1-4 days) at 37° C. in Endothelial cell growth medium-2 (EGM2) (BulletKit growth medium, Lonza #CC-3162) and until differentiation (6-12 more days). After 1-4 days in EGM2 media the cells were incubated with test agents (or positive controls) for 2-3 days (from day −3 or −2 to day 0). Rosiglitazone (1 μM) and rhBMP7 (6.3 nM) were used as reference agents (positive controls). Then (on day 0) the culture media (containing the test agents or positive controls) was removed, and minimal adipogenic medium (MDM) was added and the cells were left to differentiate of 6-12 days. The MDM media is a modification of the adipogenic media described by Rodriguez et al., and contains: DMEM/Ham's F-12 50/50 Mix (3.151 g/1, 17.5 mM D-glucose, 3.651 g/l L-glutamine) (Cellgro #10-090-CV), 5 μg/ml (0.86 μM) insulin, 1 μM dexamethasone, 100 μM 3-isobutyl-1-methylxanthine, 0.2 nM 3,3′,5-triiodo-L-thyronine, 10 μg/ml (127 nM) transferrin, and 1% penicillin-streptomycin. Adipocyte scores were determined by light microscopy and defined as the number of cells, on a per well basis, that contain multilocular lipid droplets, at the end of the differentiation of the cells, approximately 6 to 12 days following the end of compound treatment and switch into MDM media.
Pictures of cells were taken using a hand-held digital camera (Nikon Coolpix 950) and inverted microscope (Nikon TMS) used for cell culture observations; images were optimized using Paint.net version 4.0 functions for Auto-Level Brightness and Contrast.

[2] = system: CD34+ brown adipocyte progenitor cells; assay: Multiplexed TaqMan real-time PCR of UCP1 and PPARγ2 mRNA (normalized to cyclophilin A) to quantify differentiation of CD34+ cells into brown adipocytes; assay type: cell-based, human; details: for differentiation of brown adipocyte progenitor cells into brown adipocytes, as indicated by expression of UCP1 and PPARγ2: in vitro, first screen at 10 μM, actives retested at 1 nM to 50 μM
Description: A robust method, previously disclosed, was used for detection of CD34+ cell differentiation into brown adipocytes by simultaneously quantifying mRNA species corresponding to the brown adipocyte marker UCP1, the adipocyte marker PPARγ2, and the “housekeeping” gene cyclophilin A which was used as the internal control.
This method permits analysis of a large number of samples to identify agents that enhance the differentiation of CD34+ cells into brown adipocytes. When differentiated into brown adipocytes, CD34+ cells express much higher levels of UCP1 and PPARγ2 mRNA for a given level of cyclophilin A. UCP1 and PPARγ2 mRNA levels normalized to cyclophilin A mRNA levels give an indication of the level of differentiation of the CD34+ cells into brown adipocytes, independent of the total number of cells in the sample.
Quantification of UCP1, PPARγ2 and cyclophilin A mRNA by multiplexed TaqMan real-time PCR was thus used to quantify differentiation of the CD34+ cells into brown adipocytes.
UCP1 is the key protein in brown adipocytes responsible for uncoupled respiration and is also highly specific for brown adipocyte differentiation. It is expressed exclusively by fully differentiated brown adipocytes and not by the CD34+ progenitor cells. We used a real-time semi-quantitative RT PCR-based assay for detection of UCP1 expression, in order to screen for brown adipocyte recruiters. […] The assay has the added advantage of allowing light microscopic visualization of the distinct morphological changes accompanying differentiation into brown adipocytes. This serves as further confirmation of differentiation.
as §1
Total RNA was prepared from cells using PureLink RNA Isolation Kit (Invitrogen #12183-016). Alternatively, cells were simply lyzed by freezing (−80° C.). First strand cDNA were synthesized using the High Capacity cDNA Reverse Transcription kit (Applied Biosystems, Foster City, Calif.) and random primers.
Quantitative real-time PCR was performed using an Applied Biosystems StepOnePlus™ instrument, TaqMan Gene Expression Master Mix (Applied Biosystems #4369016), and custom TaqMan gene expression probes and primers for human uncoupling protein-1 “UCP1” (GenBank NM_021833) and for human peptidylprolyl isomerase A “cyclophilin A” (GenBank NM_021130).
Cyclophilin A was used as a control to account for any variations due to the efficiency of reverse transcription. Arbitrary units were determined by normalizing target mRNA levels to cyclophilin A mRNA levels (based on Cts).

DIO mice = assay: DIO mouse study of metabolic health, once-daily oral gavage for 28 to 56 days; assay type: in vivo, C57Bl/6 mice; details: oral gavage once a day, bezafibrate 60 mg/kg, oxaprozin 50 mg/kg, vs vehicle
Experimental: Obesity and insulin resistance, an early stage in the development of type 2 diabetes (or pre-diabetes), was induced in C57Bl/6 mice by feeding the mice with a high fat diet (Research diet, Cat #D12492, 60/a fat kcal) for 12 weeks starting at 6 weeks of age. The mice were maintained at 22-23° C. with abundant bedding material, maintaining the animals in an environmental temperature close to their thermoneutrality, starting 2 weeks prior to the dosing period and for the full dosing period with a 12 h/12 h light/dark cycle.
Mice were dosed once per day by oral gavage (200 μl per mouse), first for 3 days with the vehicle (PBS+0.5% CMC+0.1% Tween-80) as acclimation for running into the study, then with either vehicle alone or testing material dissolved in the vehicle for […] (4 to 8 weeks).
Body weight was recorded every 3 days, body composition (fat and lean mass with EchoMRI) was assessed at the end of the study (University of Cincinnati Mouse Metabolic Phenotyping Center), blood glucose level (measured with a glucometer) was monitored 3-5 days before (baseline) and at the end of the dosing period.
At the end of the dosing period, animals were fasted for 6 hours and euthanized by CO2, blood was collected, and plasma was isolated and saved at −20° C. Plasma glucose, insulin and leptin levels were assessed 3-5 days before (baseline) and at the end of the dosing period (mice were fasted for 6 hours before all plasma collection) (University of Cincinnati Mouse Metabolic Phenotyping Center). Insulin sensitivity was determined using the homeostasis model assessment of insulin resistance (HOMA-IR). HOMA-IR=(plasma insulin [microIU/ml] x plasma glucose [mM])/22.5.
The mice were maintained on a high fat diet (60% calories from fat) throughout the study. An overnight fast was performed the last night of the study in preparation for glucose tolerance testing.

CD34+ cells [3] = assay: Quantification of UCP1 protein by fluorescence immunohistochemistry (IHC); assay type: cell-based, human
Experimental: Culturing and differentiation of CD34+ cells into brown adipocytes were performed using adipogenic differentiation medium lacking (Minimal Differentiation Medium, MDM) or containing 1 μM rosiglitazone (Reference Differentiation Medium, RDM). After 15 days of differentiation cells were fixed with 4% Paraformaldehyde PBS pH 7.4, and incubated with a UCP1 antibody (Abcam ab23841) and Alexafluor 488 goat anti-rabbit antibody to quantify relative UCP1 levels (green) according to standard protocols. Prior to fixation of cells, nuclei were labeled with 5 μM DAPI (blue) for 10 minutes. Each treatment condition was evaluated in triplicate in a 96-well plate corresponding to approximately 360-480 cells for each data point in total. The InCell 1000 Developer Toolbox software was used to develop an automated cell detection script to measure UCP1 signal intensity, using the nuclei and cytoplasm detection algorithms. As a readout, total intensity of UCP1 signal within the cell was used, normalized to cell number.

Row | Molecule | brown adipocyte formation by light microscopy (CD34+ cells [1]) | differentiation of brown adipocyte progenitor cells into brown adipocytes, as indicated by expression of UCP1 and PPARγ2 [2] | body fat mass (DIO mice; MRI) | body weight (DIO mice) | glycemia (DIO mice) | insulin resistance index (HOMA-IR) (DIO mice) | plasma insulin (DIO mice) | plasma leptin (DIO mice) | agents identified by quantification of UCP1 protein by fluorescence IHC (CD34+ cells [3]) | recruitment of brown adipocytes ([2]; CD34+ cells, rosiglitazone 1 μM, BMP7 6 nM (most effective individual concentrations), day −3 to d0) | response of the UCP1/PPARγ2 RT-PCR assay to positive controls ([2]; positive controls)
1 | CC(C)(Oc1ccc(CCNC(=O)c2ccc(Cl)cc2)cc1)C(=O)O [bezafibrate, 2-(4-{2-[(4-chlorobenzoyl)amino]ethyl}phenoxy)−2-methylpropanoic acid] | promote brown adipocyte formation | promote the differentiation of brown adipocyte progenitor cells into brown adipocytes | significant decreases | significant decreases | significant decreases | significant decreases | significant decreases | significant decreases | – | – | –
2 | O=C(O)c1cc(-c2ccc(F)cc2F)ccc1O [diflunisal, Diflunisal] | promote brown adipocyte formation | promote the differentiation of brown adipocyte progenitor cells into brown adipocytes | – | – | – | – | – | – | identified using this technique | – | –
3 | CCCN(CCC)S(=O)(=O)c1ccc(C(=O)O)cc1 [probenecid, Probenecid] | promote brown adipocyte formation | promote the differentiation of brown adipocyte progenitor cells into brown adipocytes | – | – | – | – | – | – | identified using this technique | – | –
4 | BMP7: recombinant human BMP7 (rhBMP7), R&D Systems, reference agent (positive control) (protein, UniProt P18075 293-431, looked up) Bone morphogenetic protein 7: STGSKQRSQNRSKTPKNQEALRMANVAENSSSDQRQACKKHELYVSFRDLGWQDWIIAPEGYAAYYCEGECAFPLNSYMNATNHAIVQTLVHFINPETVPKPCCAPTQLNAISVLYFDDSSNVILKKYRNMVVRACGCH | promote brown adipocyte formation | – | – | – | – | – | – | – | – | robustly increase the recruitment of brown adipocytes | appropriate dose-responsive behavior
